Results: patent US8314255B2, “Use of phthalimide and/or sulphonamide derivatives in the treatment of diseases which require reducing the TNF- α levels and an exogenous source of nitric oxide, phthalimide derivatives, sulphonamide derivatives, and a method for obtaining a sulphonamide derivative” (priority 2007, dated 2012)
Entries after “also recorded” stand apart in the source; their conditions may differ.

How the values were obtained:
gamma-globin mRNA = test: Gamma-globin gene expression in K562 cell culture by Real Time PCR; type: cell-based, human; conditions: for gene expression of gamma-globin: K562 erythroleukemic cells, Real Time PCR, 5-100 μM, 24-96 h
Method: (§1) The human leukemia cell line K562 ATCC (American Type Culture Collection), Philadelphia, Pa., USA was used. The cells were cultured in DMEM median (Dulbecco's Modified Eagle Medium, Invitrogen, USA) containing 10% of fetal bovine serum and glutamine. The cells were maintained at 37° C. under a 5% CO2 atmosphere. For the experiments, the cells were incubated at a density of 1×10^5 cells/mL. In order to carry out the culture with hemin (30 uM), it was added 72 hours before the beginning of the experiment with the desired compound.
(§2) The 0-hour time consisted in removing non-treated K562 cells. From this point, the respective compounds were added at the desired concentrations (5, 30, 60 and 100 uM), the cells were then maintained for […] under culture, without a new addition of any compound or substitution of the culture medium. Cell collections were performed at the following times: 0, 24, 48, 72 and 96 hours. The morphology of the cells was analyzed at these points through cytospin slides stained with Leishman and the cell viability was performed by staining with trypan blue in a Neuberger's chamber.
The extraction method with TRIzol reagent (Gibco-BRL, Gaithersburg, Md.) according to the manufacturer's instructions was used in order to obtain the RNA from K562. The sample containing K562 and TRIzol was incubated for 5 minutes at room temperature in order to achieve complete dissociation of the nucleoproteic complexes, 200 μL of chloroform (CHCl3) was added and thoroughly stirred, and incubation was again performed by 5 minutes at room temperature. After centrifugation for 15 minutes at 19,000 g at a temperature of 4° C., the supernatant was obtained and stored in another tube, proceeding immediately to the step of precipitation with 500 μL of cold isopropanol. After homogenization, a new incubation was carried out for 10 minutes at room temperature, followed by centrifugation for 10 minutes at 19,000 g at 4° C. The supernatant was disposed of and 800 μL of 70% cold ethanol was added to the precipitate, with a new centrifugation being carried out for 5 minutes at 14,000 at 4° C. […]
The RNA samples obtained were subjected to the complementary DNA (cDNA) synthesis using the Superscript III RTTM kit (Invitrogen, Life Technologies). After reading in a spectrophotometer (Gene Quant-Pharmacia, USA) and quantification, 3 μg of RNA were treated with the enzyme DNase I (Invitrogen, Life Technologies), for removal of contaminant DNA. […]
After reading in a spectrophotometer (Gene Quant-Pharmacia, USA) and quantification, cDNA aliquots were used as template in quantitative real-time PCR reactions. The technique consists in optically monitoring the fluorescence emitted during the PCR reaction, by means of the binding of a specific probe or dye to the newly synthesized strand. […]

K562 cells = test: Cell viability in K562 culture (trypan blue); type: cell-based, human
Method: as §1, §2

SMILES	gene expression of gamma-globin in the presence of hemin versus absence of hemin (gamma-globin mRNA; K562 cells, hemin 30 uM, compared to the control)	gene expression of gamma-globin (gamma-globin mRNA)	cell viability (K562 cells; K562 assays with and without hemin, at the concentrations used)	concentration showing activity on gamma-globin expression (gamma-globin mRNA; K562 cells, 48 hours) [µM]	cell viability (K562 cells; at 0 h, pattern maintained during the assay) [%]
O=C1c2ccccc2C(=O)N1c1ccc(CCO[N+](=O)[O-])cc1 [Compound IE, 2-[4-(1,3-dioxo-1,3-dihydro-2H-isoindol-2-yl)phenyl]ethyl nitrate]	did not show a significantly higher activity	increasing the gene expression of gamma-globin	higher than 90%	–	–
Nc1ccc(S(=O)(=O)NO)cc1 [Compound IIA, 4-amino-N-hydroxybenzenesulphonamide]	–	higher activity than the control; also recorded: higher than the increase provided by compound IE	–	5	97
